From patent US20040044075A1, “Alpha acyloxyacetamides for kallikrein and urokinase inhibition” (Genzyme Corporation, priority 2002, published 2004)

Experiments:
Kallikrein = Kallikrein (Homo sapiens, UniProt P03952); assay: Kallikrein inhibition assay (fluorometric, H-Pro-Phe-Arg-AMC substrate); format: biochemical; conditions: 24° C, HEPES pH 7.5, 5% DMSO, fluorescence after ten minutes
Procedure: Kallikrein activity was assayed fluorometrically with an aminomethyl coumarin-containing (AMC-containing) substrate according to procedures described in Zimmerman et al., Proc. Natl. Acad. Sci. USA 75:750 (1978), the entire teachings of which are incorporated herein by reference. Specifically, enzyme assays with varying concentrations of the fluorogenic substrate H-Pro-Phe-Arg-AMC were conducted at 24° C in 0.05 M 4-(2-hydroxyethyl)-piperazineethanesulfonic acid (HEPES) buffer, pH 7.5/5% (vol/vol) dimethyl sulfoxide. The final volume was 0.1 ml in each assay. Fluorescence was read after ten minutes at 360 nm (activation wavelength) and 460 nm (emission wavelength).

[1] = tested on: ICR derived male or female mice; assay: Acetic acid writhing assay; format: in vivo; conditions: for % Reduction of Writhes: one hour before acetic acid
Procedure: The analgesic activity of a number of compounds of the present invention were tested in an acetic acid writhing assay disclosed in Inoue et al., Arzneimittel Forschung Drug Research 41:228 (1991), the entire teachings of which are incorporated herein by reference. The test substance was administered intraperitoneally (500, 100 and 20 mg/kg) to groups of 3 ICR derived male or female mice weighing 22±2 g one hour before the injection of acetic acid (3%, 10 ml/kg, IP). Reduction in the number of writhes by 50% or more per group of animals observed during the 5-10 minutes period after acetic acid administration, relative to a vehicle-treated control group (challenge with acetic acid), indicates analgesic activity.

male rats = assay: Rat model of inflammatory bowel disease (DNBS-induced distal colitis); format: in vivo
Procedure: Compounds were tested according to procedures described in C M Hogaboam et al., Eur. J. Pharmacol. 309:261 (1996), the entire teachings of which are incorporated herein by reference. Groups of 3 overnight fasted male rats weighing 150±10 grams were used. Distal colitis was induced by intra-colonic instillation of 0.5 ml/rat of DNBS (2,4-dinitrobenzene sulfonic acid, 60 mg/ml in ethanol 30%) after which air (2 ml) was gently injected through the cannula to ensure that the solution remained in the colon. Test compound was administered orally 24 and 2 hours before DNBS instillation and then daily for 5 days in total of 7 doses. The animals were sacrificed 24 hours after the final dose of test compound administration and each colon was removed and weighed. A 30 percent or more (≧30%) inhibition in net increase of colon to 100 grams body weight ratio, relative to vehicle-control-2 group is considered significant.

[2] = tested on: Long Evans derived male or female rats; assay: Carageenan assay (hind paw edema); format: in vivo; conditions: for Inhibition (of hind paw edema): 3 hours after carageenan; for Edema: hind paw edema 3 hours after carageenan
Procedure: The assay was performed according to procedures disclosed in Winter et al, Proc. Exper. Biol. Med 111: 544 (1962), the entire teachings of which are incorporated herein by reference. […] Hind paw edema, as a measure of inflammation, was measured 3 hours after carageenan administration using a plethysmometer (Ugo Basile Catalog No. 7150) with water cell (25 mm diameter, Catalog No. 7157). Reduction of hind paw edema by 30% or more indicates significant acute anti-inflammatory activity.

[3] = 4 mg/kg PO × 7, with DNBS, rats
[4] = 20 mg/kg PO × 7, with DNBS, rats
[5] = 75 mg/kg PO × 7, with DNBS, rats
[6] = 500 mg/kg PO × 7, with DNBS, rats

Kallikrein, sequence (P03952 whole entry): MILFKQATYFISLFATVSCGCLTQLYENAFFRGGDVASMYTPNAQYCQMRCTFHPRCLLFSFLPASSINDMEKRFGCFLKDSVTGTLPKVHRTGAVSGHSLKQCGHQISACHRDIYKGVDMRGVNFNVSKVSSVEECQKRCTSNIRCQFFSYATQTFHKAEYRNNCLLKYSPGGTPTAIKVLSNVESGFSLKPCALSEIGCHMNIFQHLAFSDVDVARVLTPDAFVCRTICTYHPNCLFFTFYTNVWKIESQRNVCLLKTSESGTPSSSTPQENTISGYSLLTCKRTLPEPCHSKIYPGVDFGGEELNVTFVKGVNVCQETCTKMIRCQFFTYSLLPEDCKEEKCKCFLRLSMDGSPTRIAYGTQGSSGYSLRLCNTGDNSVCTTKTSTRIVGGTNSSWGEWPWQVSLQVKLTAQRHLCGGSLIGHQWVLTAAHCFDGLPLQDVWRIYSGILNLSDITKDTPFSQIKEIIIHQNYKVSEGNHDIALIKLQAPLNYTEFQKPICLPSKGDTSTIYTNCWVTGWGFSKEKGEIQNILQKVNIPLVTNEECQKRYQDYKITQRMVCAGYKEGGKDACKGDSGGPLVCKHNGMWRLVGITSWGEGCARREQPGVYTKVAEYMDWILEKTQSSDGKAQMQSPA

For COc1ccc(NC(=O)C(OC(=O)CSc2ncccn2)c2ccc(Br)cc2)cc1OC (stereo not drawn) [Compound (29)], the IC50 (Kallikrein) was 0.31 µM, the “% Reduction of Writhes” value ([1]; 20 mg/kg IP) was 17% and the “% Reduction of Writhes” value ([1]; 100 mg/kg IP) was 33%. For the same molecule, the “% Reduction of Writhes” value ([1]; 500 mg/kg IP) was 83%.
For COc1ccc(OC)c(C(=O)CCC(=O)OC(C(=O)NCc2cc(OC)c(OC)c(OC)c2)c2ccc3ccccc3c2)c1 (stereo not drawn) [Compound (24)], the IC50 (Kallikrein) was 0.247 µM, the “% Reduction of Writhes” value ([1]; 20 mg/kg IP) was 0% and the “% Reduction of Writhes” value ([1]; 100 mg/kg IP) was 25%. The “% Reduction of Writhes” value ([1]; 500 mg/kg IP) was 83%.
In the case of COc1ccc(OC)c(C(=O)CCC(=O)OC(C(=O)NCc2cc(OC)c(OC)c(OC)c2)c2ccc(Br)cc2)c1 (stereo not drawn) [Compound (26)], the “Ave. (average final weight of the colon in grams)” value (male rats; [3]) was 1.061 grams, the “Inhibition (percent inhibition in net increase of colon weight relative to control Group 2)” value (male rats; [3]) was 0% and the “Net Inc. (net increase in weight of the colon relative to control Group 1)” value (male rats; [3]) was 0.574 grams. For the same molecule, the “Ave. (average final weight of the colon in grams)” value (male rats; [4]) was 0.947 grams, the “Inhibition (percent inhibition in net increase of colon weight relative to control Group 2)” value (male rats; [4]) was 17% and the “Net Inc. (net increase in weight of the colon relative to control Group 1)” value (male rats; [4]) was 0.460 grams. The “Ave. (average final weight of the colon in grams)” value (male rats; [5]) was 0.857 grams, the “Inhibition (percent inhibition in net increase of colon weight relative to control Group 2)” value (male rats; [5]) was 33% and the “Net Inc. (net increase in weight of the colon relative to control Group 1)” value (male rats; [5]) was 0.370 grams. The “dose response in the rat model of inflammatory bowel disease (in words)” value (male rats; 75, 20 and 4 mg/kg PO × 7, rats) was “dose responsive activity”, the “statistical significance of response in the rat model of inflammatory bowel disease (in words)” value (male rats; highest dose (75 mg/kg) PO × 7, rats) was “statistically significant response” and the “activity in a rat model of inflammatory bowel disease (in words)” value (male rats; summary statement) was “activity”. For the same molecule, the IC50 (Kallikrein) was 0.191 µM, the “% Reduction of Writhes” value ([1]; 20 mg/kg IP) was 25% and the “% Reduction of Writhes” value ([1]; 100 mg/kg IP) was 58%. The “% Reduction of Writhes” value ([1]; 500 mg/kg IP) was 75%, the “significance of response in the acetic acid writhing test (in words)” value ([1]; both the 500 and 100 mg/kg doses IP) was “significant response” and the “Inhibition (of hind paw edema)” value ([2]; 30 mg/kg IP) was 0%. For the same molecule, the “Edema” value ([2]; 30 mg/kg IP) was 0.97 mL, the “Inhibition (of hind paw edema)” value ([2]; 100 mg/kg IP) was 19% and the “Edema” value ([2]; 100 mg/kg IP) was 0.76 mL. For the same molecule, the “Inhibition (of hind paw edema)” value ([2]; 300 mg/kg IP) was 34%, the “Edema” value ([2]; 300 mg/kg IP) was 0.62 mL and the “dose response in the carageenan assay (in words)” value ([2]; 300, 100 and 30 mg/kg IP) was “dose responsive activity”. The “statistical significance of response in the carageenan assay (in words)” value ([2]; highest dose (300 mg/kg) IP) was “statistically significant response”.
With COc1ccc2c(c1)c(CC(=O)O)c(C)n2C(=O)c1ccc(Cl)cc1 [Indomethacin, reference compound] the “Inhibition (of hind paw edema)” value ([2]; 10 mg/kg IP) was 53% and the “Edema” value ([2]; 10 mg/kg IP) was 0.44 mL.
O=C(O)c1cc(/N=N/c2ccc(S(=O)(=O)Nc3ccccn3)cc2)ccc1O [Sulfasalazine, reference compound] was tested, and the “Ave. (average final weight of the colon in grams)” value (male rats; [6]) was 0.865 grams, the “Inhibition (percent inhibition in net increase of colon weight relative to control Group 2)” value (male rats; [6]) was 32% and the “Net Inc. (net increase in weight of the colon relative to control Group 1)” value (male rats; [6]) was 0.378 grams.
COc1cc(CNC(=O)C(OC(=O)CCOc2ccccc2)c2ccc(Br)cc2)cc(OC)c1OC (stereo not drawn) [Compound (27)] was tested, and the IC50 (Kallikrein) was 0.364 µM, the “% Reduction of Writhes” value ([1]; 20 mg/kg IP) was 8% and the “% Reduction of Writhes” value ([1]; 100 mg/kg IP) was 25%. For the same molecule, the “% Reduction of Writhes” value ([1]; 500 mg/kg IP) was 92%.
